Consider 15 molecules from patent publication US20240208992A1, “MACROCYCLES AS CFTR MODULATORS” (Idorsia Pharmaceuticals Ltd, priority 2021, published 2024).

This assay concerns the target human F508del-CFTR (Homo sapiens, UniProt P13569, DEL508-508). In words: F508del-CFTR cell surface expression (corrector activity), DiscoveRx ß-galactosidase complementation chemiluminescence assay in recombinant U2OS cell line.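 As to all read-outs here: U2OS cells co-expressing ProLink-tagged F508del-CFTR and a membrane-anchored enzyme acceptor, where more surface CFTR restores β-galactosidase activity measured by chemiluminescence.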 The settings on record: for EC50: EC50, F508del-CFTR cell surface expression, U2OS cells, 16h compound incubation, geomean values; for Emax: U2OS, in relation to Emax of corrector lumacaftor (=100%), arithmetic mean values.

Chain of human F508del-CFTR (P13569 with tags, fused parts or gaps DEL508-508): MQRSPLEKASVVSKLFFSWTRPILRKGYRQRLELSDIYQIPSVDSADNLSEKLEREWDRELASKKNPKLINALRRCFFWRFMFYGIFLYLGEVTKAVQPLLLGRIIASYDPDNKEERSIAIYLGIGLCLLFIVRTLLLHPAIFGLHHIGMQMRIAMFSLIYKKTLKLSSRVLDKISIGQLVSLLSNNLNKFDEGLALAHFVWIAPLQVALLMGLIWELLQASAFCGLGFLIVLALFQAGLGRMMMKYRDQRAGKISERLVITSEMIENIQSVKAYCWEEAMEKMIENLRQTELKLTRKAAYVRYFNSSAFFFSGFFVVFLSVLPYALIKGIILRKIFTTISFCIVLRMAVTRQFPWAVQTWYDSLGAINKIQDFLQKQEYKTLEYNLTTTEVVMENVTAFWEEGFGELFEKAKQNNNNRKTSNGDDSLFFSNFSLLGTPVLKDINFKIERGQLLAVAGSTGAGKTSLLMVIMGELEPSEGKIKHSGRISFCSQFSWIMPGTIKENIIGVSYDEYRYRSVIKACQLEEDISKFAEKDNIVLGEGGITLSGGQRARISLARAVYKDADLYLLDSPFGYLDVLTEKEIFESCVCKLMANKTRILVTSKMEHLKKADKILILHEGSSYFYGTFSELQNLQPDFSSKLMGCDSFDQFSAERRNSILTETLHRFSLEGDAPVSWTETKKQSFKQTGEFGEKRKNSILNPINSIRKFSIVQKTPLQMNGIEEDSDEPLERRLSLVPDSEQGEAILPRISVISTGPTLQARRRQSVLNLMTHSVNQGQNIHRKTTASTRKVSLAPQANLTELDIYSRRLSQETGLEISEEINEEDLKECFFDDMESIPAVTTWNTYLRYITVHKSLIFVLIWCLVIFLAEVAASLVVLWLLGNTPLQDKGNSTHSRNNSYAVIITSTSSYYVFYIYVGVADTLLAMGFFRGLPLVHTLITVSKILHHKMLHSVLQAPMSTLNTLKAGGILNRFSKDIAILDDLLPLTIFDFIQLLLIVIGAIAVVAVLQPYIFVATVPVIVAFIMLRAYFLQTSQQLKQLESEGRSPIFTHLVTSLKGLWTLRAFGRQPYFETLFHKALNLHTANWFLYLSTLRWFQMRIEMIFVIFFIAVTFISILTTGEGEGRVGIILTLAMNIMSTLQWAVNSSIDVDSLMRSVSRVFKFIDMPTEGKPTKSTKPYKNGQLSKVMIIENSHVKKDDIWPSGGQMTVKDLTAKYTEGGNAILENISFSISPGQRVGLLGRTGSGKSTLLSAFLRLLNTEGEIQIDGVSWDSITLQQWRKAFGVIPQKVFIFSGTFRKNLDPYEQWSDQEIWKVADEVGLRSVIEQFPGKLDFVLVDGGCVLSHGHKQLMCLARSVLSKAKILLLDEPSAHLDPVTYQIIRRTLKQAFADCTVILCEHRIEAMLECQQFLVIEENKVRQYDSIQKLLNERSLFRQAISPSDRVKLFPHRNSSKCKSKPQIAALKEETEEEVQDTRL

As to `COc1cccc(CCNC(=O)[C@@H]2CC(=O)N(C)[C@@H](CC(C)C)C(=O)N3CCCC[C@H]3C(=O)N[C@H](Cc3ccccc3)COc3cc(OC)cc(OC)c3C(=O)N2)c1` [Example 601, (7S,11S,20R,22aS)-20-benzyl-7-isobutyl-14,16-dimethoxy-N-(3-methoxyphenethyl)-8-methyl-6,9,13,22-tetraoxo-1,3,4,6,7,8,9,10,11,12,13,19,20,21,22,22a-hexadecahydro-2H-benzo[p]pyrido[2,1-f][1]oxa[4,7,10,14]tetraazacycloheptadecine-11-carboxamide], the EC50 is 589 nM and the Emax stood at 138%.
On the same counts, the results for `COc1cccc(CCNC(=O)[C@@H]2CC(=O)N(C)[C@@H](CC(C)C)C(=O)N3CCCC[C@@H]3C(=O)N[C@H](Cc3ccccc3)COc3cc(OC)cc(OC)c3C(=O)N2)c1` [Example 602, (7S,11S,20R,22aR)-20-benzyl-7-isobutyl-14,16-dimethoxy-N-(3-methoxyphenethyl)-8-methyl-6,9,13,22-tetraoxo-1,3,4,6,7,8,9,10,11,12,13,19,20,21,22,22a-hexadecahydro-2H-benzo[p]pyrido[2,1-f][1]oxa[4,7,10,14]tetraazacycloheptadecine-11-carboxamide] are 286 nM and 299%.
As for `COc1cccc(CCNC(=O)[C@@H]2CC(=O)N(C)[C@@H](CC(C)C)C(=O)N3CCCC[C@@H]3C(=O)N[C@H](Cc3ccccc3)COc3ccc4ccccc4c3C(=O)N2)c1` [Example 603, (4aR,7R,18S,22S)-7-benzyl-22-isobutyl-N-(3-methoxyphenethyl)-21-methyl-5,16,20,23-tetraoxo-2,3,4,4a,5,6,7,8,16,17,18,19,20,21,22,23-hexadecahydro-1H-naphtho[1,2-p]pyrido[2,1-f][1]oxa[4,7,10,14]tetraazacycloheptadecine-18-carboxamide], the EC50 came out at 205 nM and the maximum response (Emax) stood at 301%.
On the same counts, the results for `COc1cccc(CCNC(=O)[C@@H]2CC(=O)N(C)[C@@H](CC(C)C)C(=O)N3CCCC[C@H]3C(=O)N[C@H](Cc3ccccc3)COc3ccc4ccccc4c3C(=O)N2)c1` [Example 604, (4aS,7R,18S,22S)-7-benzyl-22-isobutyl-N-(3-methoxyphenethyl)-21-methyl-5,16,20,23-tetraoxo-2,3,4,4a,5,6,7,8,16,17,18,19,20,21,22,23-hexadecahydro-1H-naphtho[1,2-p]pyrido[2,1-f][1]oxa[4,7,10,14]tetraazacycloheptadecine-18-carboxamide] are 354 nM and 103%.
On the same counts, the results for `CCN1CCN2C(=O)[C@H](CC(C)C)N(C)C(=O)C[C@@H](C(=O)NCCc3cccc(OC)c3)NC(=O)c3c(OC)cccc3OC[C@@H](Cc3ccccc3)NC(=O)[C@H]2C1` [Example 605, (7S,11S,20R,22aR)-20-benzyl-2-ethyl-7-isobutyl-14-methoxy-N-(3-methoxyphenethyl)-8-methyl-6,9,13,22-tetraoxo-1,3,4,6,7,8,9,10,11,12,13,19,20,21,22,22a-hexadecahydro-2H-benzo[p]pyrazino[2,1-f][1]oxa[4,7,10,14]tetraazacycloheptadecine-11-carboxamide] are 637 nM and 257%.
On the same counts, the results for `Cc1cc(CCNC(=O)[C@@H]2CC(=O)N(C)[C@@H](CC(C)C)C(=O)N3CCCC[C@H]3C(=O)N[C@H](Cc3ccccc3)COc3ccc4ccccc4c3C(=O)N2)on1` [Example 606, (4aS,7R,18S,22S)-7-benzyl-22-isobutyl-21-methyl-N-(2-(3-methylisoxazol-5-yl)ethyl)-5,16,20,23-tetraoxo-2,3,4,4a,5,6,7,8,16,17,18,19,20,21,22,23-hexadecahydro-1H-naphtho[1,2-p]pyrido[2,1-f][1]oxa[4,7,10,14]tetraazacycloheptadecine-18-carboxamide] are 521 nM and 150%.
Regarding `Cc1cc(CCNC(=O)[C@@H]2CC(=O)N(C)[C@@H](CC(C)C)C(=O)N3CCCC[C@@H]3C(=O)N[C@H](Cc3ccccc3)COc3ccc4ccccc4c3C(=O)N2)on1` [Example 607, (4aR,7R,18S,22S)-7-benzyl-22-isobutyl-21-methyl-N-(2-(3-methylisoxazol-5-yl)ethyl)-5,16,20,23-tetraoxo-2,3,4,4a,5,6,7,8,16,17,18,19,20,21,22,23-hexadecahydro-1H-naphtho[1,2-p]pyrido[2,1-f][1]oxa[4,7,10,14]tetraazacycloheptadecine-18-carboxamide], the EC50 was 121 nM and the Emax is 283%.
On the same counts, the results for `Cc1cc(CCNC(=O)[C@@H]2CC(=O)N(C)[C@@H](CC(C)C)C(=O)N3CCOC[C@@H]3C(=O)N[C@H](Cc3ccccc3)COc3ccc4ccccc4c3C(=O)N2)on1` [Example 608, (4aR,7R,18S,22S)-7-benzyl-22-isobutyl-21-methyl-N-(2-(3-methylisoxazol-5-yl)ethyl)-5,16,20,23-tetraoxo-1,2,4,4a,5,6,7,8,16,17,18,19,20,21,22,23-hexadecahydronaphtho[1,2-p][1,4]oxazino[3,4-f][1]oxa[4,7,10,14]tetraazacycloheptadecine-18-carboxamide] are 804 nM and 267%.
On the same counts, the results for `COc1cc(OC)c2c(c1)OC[C@@H](Cc1ccccc1)NC(=O)[C@H]1CCCCN1C(=O)[C@H](CC(C)C)N(C)C(=O)C[C@@H](C(=O)NCCc1cc(C)no1)NC2=O` [Example 609, (7S,11S,20R,22aR)-20-benzyl-7-isobutyl-14,16-dimethoxy-8-methyl-N-(2-(3-methylisoxazol-5-yl)ethyl)-6,9,13,22-tetraoxo-1,3,4,6,7,8,9,10,11,12,13,19,20,21,22,22a-hexadecahydro-2H-benzo[p]pyrido[2,1-f][1]oxa[4,7,10,14]tetraazacycloheptadecine-11-carboxamide] are 574 nM and 320%.
On the same counts, the results for `CC(C)C[C@H]1C(=O)N(CCC2CCCCC2)CC(=O)N[C@H](Cc2ccccc2)COc2cnc3ccccc3c2C(=O)N[C@H](C(=O)NCCc2ccc3c(c2)OCO3)CC(=O)N1C` [Example 610, (3S,7S,13R)-N-(2-(benzo[d][1,3]dioxol-5-yl)ethyl)-13-benzyl-9-(2-cyclohexylethyl)-7-isobutyl-6-methyl-1,5,8,11-tetraoxo-1,2,3,4,5,6,7,8,9,10,11,12,13,14-tetradecahydro-[1]oxa[4,7,10,14]tetraazacycloheptadecino[17,16-c]quinoline-3-carboxamide] are 89 nM and 311%.
Regarding `COc1cccc(CCNC(=O)[C@@H]2CC(=O)N(C)[C@@H](CC(C)C)C(=O)N3CCN(C(C)C)C[C@@H]3C(=O)N[C@H](Cc3ccccc3)COc3cccc(OC)c3C(=O)N2)c1` [Example 611, (7S,11S,20R,22aR)-20-benzyl-7-isobutyl-2-isopropyl-14-methoxy-N-(3-methoxyphenethyl)-8-methyl-6,9,13,22-tetraoxo-1,3,4,6,7,8,9,10,11,12,13,19,20,21,22,22a-hexadecahydro-2H-benzo[p]pyrazino[2,1-f][1]oxa[4,7,10,14]tetraazacycloheptadecine-11-carboxamide], the EC50 was found to be 344 nM and the Emax was 251%.
In the case of `COc1cccc(CCNC(=O)[C@@H]2CC(=O)N(C)[C@@H](CC(C)C)C(=O)N3CCN(CC(C)C)C[C@@H]3C(=O)N[C@H](Cc3ccccc3)COc3cccc(OC)c3C(=O)N2)c1` [Example 612, (7S,11S,20R,22aR)-20-benzyl-2,7-diisobutyl-14-methoxy-N-(3-methoxyphenethyl)-8-methyl-6,9,13,22-tetraoxo-1,3,4,6,7,8,9,10,11,12,13,19,20,21,22,22a-hexadecahydro-2H-benzo[p]pyrazino[2,1-f][1]oxa[4,7,10,14]tetraazacycloheptadecine-11-carboxamide], the EC50 turned out to be 148 nM and the Emax came out at 298%.
On to `COc1cc(CCNC(=O)[C@@H]2CC(=O)N(C)[C@@H](CC(C)C)C(=O)N3CCN(CC(C)C)C[C@@H]3C(=O)N[C@H](Cc3ccccc3)COc3ccc4ccccc4c3C(=O)N2)cc(OC)c1` [Example 613, (4aR,7R,18S,22S)-7-benzyl-N-(3,5-dimethoxyphenethyl)-3,22-diisobutyl-21-methyl-5,16,20,23-tetraoxo-2,3,4,4a,5,6,7,8,16,17,18,19,20,21,22,23-hexadecahydro-1H-naphtho[1,2-p]pyrazino[2,1-f][1]oxa[4,7,10,14]tetraazacycloheptadecine-18-carboxamide], for which the EC50 was 82 nM and the Emax was found to be 312%.
On the same counts, the results for `COc1cccc(CCNC(=O)[C@@H]2CC(=O)N(C)[C@@H](CC(C)C)C(=O)N3CCCC[C@@H]3C(=O)N[C@H](Cc3ccccc3)COc3ccc4nc(C)oc4c3C(=O)N2)c1` [Example 614, (8S,12S,18aR,21R)-21-benzyl-12-isobutyl-N-(3-methoxyphenethyl)-4,11-dimethyl-6,10,13,19-tetraoxo-6,7,8,9,10,11,12,13,16,17,18,18a,19,20,21,22-hexadecahydro-15H-oxazolo[4′,5′:5,6]benzo[1,2-p]pyrido[2,1-f][1]oxa[4,7,10,14]tetraazacycloheptadecine-8-carboxamide] are 484 nM and 317%.
On the same counts, the results for `COc1cccc(CCNC(=O)[C@@H]2CC(=O)N(C)[C@@H](CC(C)C)C(=O)N3CCCC[C@H]3C(=O)N[C@H](Cc3ccccc3)COc3ccc4nc(C)oc4c3C(=O)N2)c1` [Example 615, (8S,12S,18aS,21R)-21-benzyl-12-isobutyl-N-(3-methoxyphenethyl)-4,11-dimethyl-6,10,13,19-tetraoxo-6,7,8,9,10,11,12,13,16,17,18,18a,19,20,21,22-hexadecahydro-15H-oxazolo[4′,5′:5,6]benzo[1,2-p]pyrido[2,1-f][1]oxa[4,7,10,14]tetraazacycloheptadecine-8-carboxamide] are 465 nM and 170%.

The term EC50 denotes the concentration that produces a half-maximal response. One may read the Emax as the greatest response seen or fitted, relative to the assay's reference.
